Measurements reported in PMC6424904, “The Utility of Efavirenz-based Prophylaxis Against HIV Infection. A Systems Pharmacological Analysis” (Frontiers in Pharmacology, 2019).
Like-named read-outs stand apart in the source and are kept apart here.

Assays:
[1] = human, in vivo
Description: In our work, we modeled metabolic autoinduction similarly to the model proposed by Zhu et al. ([2009]). We defined the term α as the ratio of the mean clearance on day 1 to the mean clearance at steady state (after autoinduction). […] For each virtual patient generated from the population pharmacokinetic model, the individual clearance at steady state was available and the clearance at day 1 was computed using CLi,t0 = α·CLi, SS. Zhu et al. ([2009]) proposed a model for time-dependent autoinduction that we used herein
(4) CLi(t)=CLi,t0+(CLi,SS-CLi,t0)·t-t0/(t-t0)+T50
where CLi(t) is the individual clearance rate at the time t and t0 is the time of the first EFV dose. CLi(0) and CLi, SS represent the clearance rates at day 1 and at steady state.

wild-type HIV = tested on: wild-type HIV; design: method as in Shen et al., 2008; conditions: ref Shen et al., 2008, cited from earlier work
HIV Y181C mutant = tested on: HIV Y181C mutant; design: method as in Sampah et al., 2011; conditions: ref Sampah et al., 2011; cited from earlier work
HIV K103N mutant = tested on: HIV K103N mutant; design: method as in Sampah et al., 2011; conditions: ref Sampah et al., 2011; cited from earlier work
HIV G190S mutant = tested on: HIV G190S mutant; design: method as in Sampah et al., 2011; conditions: ref Sampah et al., 2011; cited from earlier work
[2] = tested on: plasma proteins (human serum albumin and α-1-acid glycoprotein); conditions: cited from earlier work; for unbound fraction in human plasma (fu): ref Almond et al., 2005, Fayet et al., 2008, Burhenne et al., 2010, Avery et al., 2011, 2013a
[3] = design: method as in Mukonzo et al., 2009; conditions: healthy men, ref Mukonzo et al., 2009, cited from earlier work
[4] = cited from earlier work; for typical population clearance value: 70kg; for typical population clearance value / relative change in apparent oral clearance vs reference genotype: ref Dickinson et al. (2015)
[5] = cited from earlier work
[6] = no reference given; cited from earlier work
[7] = in vivo; cited from earlier work
[8] = in vivo; cited from earlier work; remark: listed apart in the source
[9] = genotype GG/TC or CC/CA or AA/CC
[10] = genotype GG/TC or CC/CA or AA/CT
[11] = genotype GG/TC or CC/CC/CT or TT
[12] = genotype GT/TC or CC/CA or AA/CC
[13] = genotype GT/TC or CC/CC/CT or TT

O=C1Nc2ccc(Cl)cc2[C@@](C#CC2CC2)(C(F)(F)F)O1 [efavirenz]
α, ratio of mean clearance on day 1 to mean clearance at steady state [1]: 0.58 | IC50 (wild-type HIV; corrected for protein binding): 5.4 nM | hill coefficient m (± sd) (wild-type HIV): 1.69 (±0.08) | hill coefficient m as multiple of m(wt) (HIV Y181C mutant): 0.9·m(wt) | hill coefficient m as multiple of m(wt) (HIV K103N mutant): 0.83·m(wt) | hill coefficient m as multiple of m(wt) (HIV G190S mutant): 0.6·m(wt) | unbound fraction in human plasma (fu) [2]: ≤ 1% | unbound fraction in human plasma (fu) ([2]; listed as EFV): < 1% | fu,plasma used for IC50 correction ([2]; value used to obtain IC50plasma): 0.2% | half life ([3]; slow metabolisers): 54.7 h | half life ([3]; wild type): 37.3 h | typical population clearance value ([4]; Missing genotype): 8.7 L/h | typical population clearance value [4, 9]: 9.0 L/h | typical population clearance value [4, 10]: 11.4 L/h | typical population clearance value ([4]; genotype GG/TC or CC/CC/CC): 8.7 L/h | typical population clearance value [4, 11]: 3.5 L/h | typical population clearance value [4, 12]: 2.2 L/h | typical population clearance value ([4]; genotype GT/TC or CC/CC/CC): 5.0 L/h | typical population clearance value [4, 13]: 4.6 L/h | typical population clearance value ([4]; genotype GT/TT/CA or AA/CC): 8.2 L/h | typical population clearance value ([4]; genotype GT/TT/CA or AA/CT): 8.4 L/h | typical population clearance value ([4]; genotype GT/TT/CC/CC): 8.9 L/h | typical population clearance value ([4]; genotype GT/TT/CC/CT or TT): 8.1 L/h | typical population clearance value ([4]; genotype TT/TT/CA or AA/CC): 5.2 L/h | typical population clearance value ([4]; genotype TT/TT/CA or AA/CT): 8.9 L/h | typical population clearance value ([4]; genotype TT/TT/CC/CC): 4.0 L/h | typical population clearance value ([4]; genotype TT/TT/CC/CT or TT): 4.1 L/h | relative change in apparent oral clearance vs reference genotype ([4]; Missing genotype): 0.73 | relative change in apparent oral clearance vs reference genotype [4, 9]: 0.75 | relative change in apparent oral clearance vs reference genotype [4, 10]: 0.96 | relative change in apparent oral clearance vs reference genotype ([4]; genotype GG/TC or CC/CC/CC): 0.73 | relative change in apparent oral clearance vs reference genotype [4, 11]: 0.30 | relative change in apparent oral clearance vs reference genotype [4, 12]: 0.18 | relative change in apparent oral clearance vs reference genotype ([4]; genotype GT/TC or CC/CC/CC): 0.42 | relative change in apparent oral clearance vs reference genotype [4, 13]: 0.39 | relative change in apparent oral clearance vs reference genotype ([4]; genotype GT/TT/CA or AA/CC): 0.69 | relative change in apparent oral clearance vs reference genotype ([4]; genotype GT/TT/CA or AA/CT): 0.71 | relative change in apparent oral clearance vs reference genotype ([4]; genotype GT/TT/CC/CC): 0.75 | relative change in apparent oral clearance vs reference genotype ([4]; genotype GT/TT/CC/CT or TT): 0.68 | relative change in apparent oral clearance vs reference genotype ([4]; genotype TT/TT/CA or AA/CC): 0.44 | relative change in apparent oral clearance vs reference genotype ([4]; genotype TT/TT/CA or AA/CT): 0.75 | relative change in apparent oral clearance vs reference genotype ([4]; genotype TT/TT/CC/CC): 0.33 | relative change in apparent oral clearance vs reference genotype ([4]; genotype TT/TT/CC/CT or TT): 0.34 | absorption rate constant ka ([4]; in vivo): 0.6 h⁻¹ | interindividual variability CVIIV(CLss/Fbio) ([4]; in vivo): 36.6% | interoccasion variability CVIOV(CLss/Fbio) ([4]; in vivo): 21.0% | apparent volume of distribution V/Fbio ([4]; population mean, 70 kg individual, ref Dickinson et al., 2015): 282 L | apparent oral clearance CL/Fbio (CLss/Fbio) ([4]; population value, 70 kg individual, reference (wild-type) CYP genotype, after autoinduction, ref Dickinson et al., 2015): 11.9 L/h | T50, time where the clearance rate reaches half of its steady-state value ([5]; in vivo): 245 h | average clearance on the first day ([5]; ref Zhu et al., 2009): 5.76 L/h | LogP [6]: ≈ 4 | semen-to-plasma ratio of total EFV concentrations [7]: 3.4–5% | cervical fluid-to-plasma ratio of total concentrations [8]: 0.4%
